# According to ChEMBL document CHEMBL1131677, “Synthesis and biological evaluation of substituted 4-(OBz)phenylalanine derivatives as novel N-type calcium channel blockers” (Bioorg Med Chem Lett, 1999):
# pIC50: −log10 of the molar value.
# Target: Voltage-dependent N-type calcium channel subunit alpha-1B (Homo sapiens, UniProt Q00975)
# Test: In vitro N-type [Ca2+] channel blocking potency in IMR-32 human neuroblastoma cells
# Format: functional, cell-based
# Sequence of Voltage-dependent N-type calcium channel subunit alpha-1B (Q00975 whole entry): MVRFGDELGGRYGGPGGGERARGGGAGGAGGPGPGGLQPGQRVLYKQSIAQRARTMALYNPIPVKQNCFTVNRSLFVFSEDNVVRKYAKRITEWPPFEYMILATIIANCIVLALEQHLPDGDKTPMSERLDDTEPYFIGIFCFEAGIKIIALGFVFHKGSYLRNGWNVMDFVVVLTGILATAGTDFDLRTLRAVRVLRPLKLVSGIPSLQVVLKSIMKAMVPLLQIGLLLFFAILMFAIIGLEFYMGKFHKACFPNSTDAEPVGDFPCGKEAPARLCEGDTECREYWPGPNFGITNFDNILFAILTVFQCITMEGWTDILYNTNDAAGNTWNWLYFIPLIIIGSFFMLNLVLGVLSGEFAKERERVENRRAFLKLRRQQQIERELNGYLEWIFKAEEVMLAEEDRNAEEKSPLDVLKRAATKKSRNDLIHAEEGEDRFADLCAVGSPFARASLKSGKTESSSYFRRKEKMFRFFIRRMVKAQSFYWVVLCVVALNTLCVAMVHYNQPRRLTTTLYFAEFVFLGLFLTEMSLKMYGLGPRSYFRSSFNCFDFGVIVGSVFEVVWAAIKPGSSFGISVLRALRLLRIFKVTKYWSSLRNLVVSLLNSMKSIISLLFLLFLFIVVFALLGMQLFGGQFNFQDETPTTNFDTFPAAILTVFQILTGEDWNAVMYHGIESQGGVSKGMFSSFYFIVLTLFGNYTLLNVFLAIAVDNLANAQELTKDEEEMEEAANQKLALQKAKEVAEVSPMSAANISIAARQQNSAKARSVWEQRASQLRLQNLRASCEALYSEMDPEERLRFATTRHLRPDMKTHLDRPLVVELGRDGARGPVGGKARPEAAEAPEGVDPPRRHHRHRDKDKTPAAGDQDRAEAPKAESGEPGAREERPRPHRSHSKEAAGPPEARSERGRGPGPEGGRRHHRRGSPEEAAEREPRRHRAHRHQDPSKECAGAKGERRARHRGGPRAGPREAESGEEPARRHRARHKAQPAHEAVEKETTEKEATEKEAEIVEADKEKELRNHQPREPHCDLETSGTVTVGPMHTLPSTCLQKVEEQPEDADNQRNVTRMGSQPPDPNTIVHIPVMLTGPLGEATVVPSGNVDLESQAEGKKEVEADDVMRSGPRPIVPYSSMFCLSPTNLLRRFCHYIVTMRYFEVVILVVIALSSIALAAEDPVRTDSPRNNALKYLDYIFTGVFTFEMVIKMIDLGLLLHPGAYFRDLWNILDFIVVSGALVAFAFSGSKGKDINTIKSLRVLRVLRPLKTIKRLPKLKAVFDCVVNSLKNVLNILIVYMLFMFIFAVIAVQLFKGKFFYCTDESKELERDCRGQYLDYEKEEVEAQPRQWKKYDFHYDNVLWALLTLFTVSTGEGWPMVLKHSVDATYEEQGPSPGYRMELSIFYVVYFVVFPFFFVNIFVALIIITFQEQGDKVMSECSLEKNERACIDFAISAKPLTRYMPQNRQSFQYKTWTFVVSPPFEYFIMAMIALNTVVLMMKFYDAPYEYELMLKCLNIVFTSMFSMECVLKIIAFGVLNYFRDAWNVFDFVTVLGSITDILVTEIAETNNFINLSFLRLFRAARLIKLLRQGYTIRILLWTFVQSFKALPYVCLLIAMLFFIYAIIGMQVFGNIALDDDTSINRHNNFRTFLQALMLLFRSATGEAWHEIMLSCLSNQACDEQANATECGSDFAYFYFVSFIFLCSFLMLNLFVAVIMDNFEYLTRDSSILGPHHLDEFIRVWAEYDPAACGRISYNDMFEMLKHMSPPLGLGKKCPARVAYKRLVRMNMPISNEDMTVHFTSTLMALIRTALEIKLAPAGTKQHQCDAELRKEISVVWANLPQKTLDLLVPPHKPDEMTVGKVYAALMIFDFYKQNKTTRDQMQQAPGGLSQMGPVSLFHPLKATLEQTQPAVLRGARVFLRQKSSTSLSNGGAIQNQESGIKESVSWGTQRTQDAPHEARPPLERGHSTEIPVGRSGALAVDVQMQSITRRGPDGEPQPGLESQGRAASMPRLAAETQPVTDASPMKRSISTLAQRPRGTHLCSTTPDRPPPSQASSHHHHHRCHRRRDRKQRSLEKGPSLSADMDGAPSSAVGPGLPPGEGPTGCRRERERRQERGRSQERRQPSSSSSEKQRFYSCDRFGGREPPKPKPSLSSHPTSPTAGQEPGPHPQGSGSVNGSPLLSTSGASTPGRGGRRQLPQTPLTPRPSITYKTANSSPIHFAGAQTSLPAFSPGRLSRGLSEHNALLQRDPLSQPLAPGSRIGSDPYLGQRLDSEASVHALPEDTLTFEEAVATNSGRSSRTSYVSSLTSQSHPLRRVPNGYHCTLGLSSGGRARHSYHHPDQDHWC
row,pIC50,SMILES
1,6.43,CC(C)CCN(C)[C@H](CC(C)C)C(=O)N[C@@H](Cc1ccc(OC(=O)c2ccccc2)cc1)C(=O)NC(C)(C)C
2,6.00,CC(C)CCN1CCN(C)CC1C(=O)N[C@@H](Cc1ccc(OC(=O)c2ccccc2)cc1)C(=O)OC(C)(C)C (some centres not stated)
3,6.52,CC(C)CCN[C@@H](CC(C)C)C(=O)N[C@@H](Cc1ccc(OC(=O)c2ccccc2)cc1)C(=O)NC(C)(C)C
4,6.31,CC(C)CCN1CCC(C(C)C)CC1C(=O)N[C@@H](Cc1ccc(OC(=O)c2ccccc2)cc1)C(=O)OC(C)(C)C (some centres not stated)
5,5.96,CC(C)CCN1CCCC(C)C1C(=O)N[C@@H](Cc1ccc(OC(=O)c2ccccc2)cc1)C(=O)OC(C)(C)C (some centres not stated)
6,6.49,CC(C)CCN1C(C)CCCC1C(=O)N[C@@H](Cc1ccc(OC(=O)c2ccccc2)cc1)C(=O)OC(C)(C)C (some centres not stated)
7,5.80,CC(C)CCN(C)CC(=O)N[C@@H](Cc1ccc(OC(=O)c2ccccc2)cc1)C(=O)NC(C)(C)C
8,6.08,CC(C)CCN(C)[C@H](C(=O)N[C@@H](Cc1ccc(OC(=O)c2ccccc2)cc1)C(=O)NC(C)(C)C)C(C)C
9,6.00,CC(C)CCN1CCCCC1C(=O)N[C@@H](Cc1ccc(OC(=O)c2ccccc2)cc1)C(=O)OC(C)(C)C (some centres not stated)
10,6.40,CC(C)CCN[C@@H](CC(C)C)C(=O)N[C@@H](Cc1ccc(OC(=O)c2ccccc2)cc1)C(=O)OC(C)(C)C
11,5.82,CC(C)CCN1CCC(C(=O)N[C@@H](Cc2ccc(OC(=O)c3ccccc3)cc2)C(=O)OC(C)(C)C)CC1
12,6.11,CC(C)CCN1CCC(C)CC1C(=O)N[C@@H](Cc1ccc(OC(=O)c2ccccc2)cc1)C(=O)OC(C)(C)C (some centres not stated)
